Source: publication PMC7269337, “Spiro-containing derivatives show antiparasitic activity against Trypanosoma brucei through inhibition of the trypanothione reductase enzyme” (PLoS Neglected Tropical Diseases, 2020)
≈ marks a conversion by molar mass, not a printed value. Read-outs that look alike come from different tables or passages of the source.

Key:
[1] = biological target: T1, TbTR (Trypanosoma brucei trypanothione reductase) (Trypanosoma brucei brucei, UniProt P39051); test: TbTR luminescent (NADPH-Glo) enzyme assay; assay type: biochemical
T1 construct: the gene coding for the enzyme (aa 1–492) was codon optimized for the expression in E.coli; made in house; host or cells: E. coli BL21(DE3)
T1 sequence (P39051 whole entry, the tested form may be a part): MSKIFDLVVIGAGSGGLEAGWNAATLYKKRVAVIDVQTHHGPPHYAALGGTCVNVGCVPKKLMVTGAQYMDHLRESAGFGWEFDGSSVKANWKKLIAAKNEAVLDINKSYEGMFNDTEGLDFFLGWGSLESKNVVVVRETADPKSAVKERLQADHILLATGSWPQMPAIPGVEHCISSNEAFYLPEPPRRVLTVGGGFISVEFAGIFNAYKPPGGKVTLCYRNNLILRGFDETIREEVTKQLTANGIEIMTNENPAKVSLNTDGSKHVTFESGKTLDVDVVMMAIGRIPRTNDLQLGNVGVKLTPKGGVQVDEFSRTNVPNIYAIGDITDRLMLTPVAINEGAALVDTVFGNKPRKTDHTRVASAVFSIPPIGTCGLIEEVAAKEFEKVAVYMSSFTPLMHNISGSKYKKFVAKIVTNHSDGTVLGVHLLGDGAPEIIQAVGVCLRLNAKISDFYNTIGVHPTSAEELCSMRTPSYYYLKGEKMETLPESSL
Experimental: (§1) Compounds from 10 mM stock solutions were transferred to assay plates by acoustic transfer (EDC Biosystems, Milmont, CA). The TbTR luminescent assay was performed in 384-well white plate (Greiner Bio One, Frickenhausen, Germany). The following components were added to the plates to a final volume of 30 μL: 0.1 nM TR, 20 μM NADPH, 10 μM TS2 in 50 mM HEPES (pH 7.4), 40 mM NaCl, 0.01% BSA. After 60 min of incubation at room temperature the residual amount of NADPH was measured by addition of an equal volume of NADPH-Glo as per the manufacturer’s protocol and the luminescent signal was acquired by an EnVision plate reader (PerkinElmer, Waltham, MA). The DTNB assay was performed in a final volume of 50 μl by addition of 2 nM TR, 100 μM NADPH, 4 μM TS2 and 200 μM DTNB in 40 mM HEPES (pH 7.4), 1 mM EDTA, 0.01% BSA and 0.05% Tween-20. After 10 minutes of incubation at room temperature the absorbance signal (412 nm) was detected using the Safire2 plate reader (Tecan, Switzerland). The human glutathione reductase (hGR) activity assay was carried out as described by Turcano et al.[23]. Results were analyzed using Prism software (GraphPad, San Diego, CA) and Vortex (Dotmatics, Bioshops Stortford, UK). Dose-response curves were fitted by four-parameter logistic regression.
The TbTR enzyme enzyme was produced in bacteria, purified as described in materials and methods and used to develop an in vitro enzyme assay (Fig 1A). To measure TbTR activity, a luminescent assay was optimized starting from a design that we previously described. First we determined the linearity range of the NADPH detection signal via NADPH-Glo kit that was determined to be 50 μM (Fig 1B). The Km (apparent) value for TS2 was calculated using 1 nM TR in the presence of serial dilutions of TS2 and a fixed concentration of 40 μM NADPH. The luminescence signal was detected in the first 10 min of reaction. NADPH depletion, calculated using the NADPH standard curve (Fig 1B), allowed the determination of the apparent Km values by the Michaelis-Menten kinetic (Fig 1C). The Km for TS2 was calculated to be 4.0 ± 0.7 μM. To further optimize the assay, a time course experiment was carried out. Different concentrations of the TbTR enzyme, ranging from 0.025 to 0.2 nM, were used, while the TS2 concentration was fixed near the Km value (5 μM) and the NADPH concentration was 20 μM that falls within the linearity range observed for the NADPH standard curve. 0.1 nM TbTR at and 60 min of incubation were judged to be an optimal compromise for preserving the reaction linearity along with a good signal to background ratio (Fig 1D) and allowing a suitable time for the screening operations. The final conditions used for the screening were: 0.1 nM TbTR, 5 μM TS2, 20 μM NADPH with the incubation time of the reaction being 60 minutes.

[2] = biological target: T2, human glutathione reductase (hGR) (Homo sapiens, UniProt P00390); test: human glutathione reductase (hGR) activity assay; assay type: biochemical
T2 construct: purchased Sigma-Aldrich
T2 sequence (P00390 44-522): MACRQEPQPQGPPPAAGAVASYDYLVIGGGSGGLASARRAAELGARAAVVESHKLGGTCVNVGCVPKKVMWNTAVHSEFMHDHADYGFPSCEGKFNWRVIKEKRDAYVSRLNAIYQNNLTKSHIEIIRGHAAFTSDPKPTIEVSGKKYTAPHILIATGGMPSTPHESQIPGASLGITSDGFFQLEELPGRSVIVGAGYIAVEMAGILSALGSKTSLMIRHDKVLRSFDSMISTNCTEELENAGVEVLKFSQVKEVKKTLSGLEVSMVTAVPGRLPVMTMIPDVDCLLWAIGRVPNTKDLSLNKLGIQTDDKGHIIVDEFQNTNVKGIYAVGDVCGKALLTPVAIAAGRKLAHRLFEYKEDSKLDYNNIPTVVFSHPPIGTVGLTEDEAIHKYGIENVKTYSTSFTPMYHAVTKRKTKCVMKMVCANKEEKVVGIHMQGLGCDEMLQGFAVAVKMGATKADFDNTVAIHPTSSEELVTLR
Experimental: as §1, with “The DTNB assay was performed in a final volume of 50 μl by addition of 2 nM TR, 100 μM NADPH, 4 μM TS2 and 200 μM DTNB in 40 mM HEPES (pH 7.4), 1 mM EDTA, 0.01% BSA and 0.05% Tween-20.” left out, “The human glutathione reductase (hGR) activity assay was carried out as described by Turcano et al.[23].” left out, “Dose-response curves were fitted by four-parameter logistic regression.” left out
(§2) L. infantum TR was cloned and purified as previously described.[1] […] After 60 min of incubation at room temperature, an equal volume of NADPH-Glo reagent was added and the luminescent signal was acquired by an EnVision plate reader […]
(§3) after 30 minute (Figure S1) according to the reagent data sheet. […] The absorbance signal (412 nm) was acquired 15 minutes post incubation at room temperature using the plate reader (Safire2, Tecan, Switzerland). […]

[3] = biological target: T3, Leishmania infantum TR (LiTR) (Leishmania infantum, UniProt A4HSF7); test: LiTR luminescent (NADPH-Glo) enzyme assay; assay type: biochemical
T3 construct: made in house
T3 sequence (A4HSF7 entry or part of it): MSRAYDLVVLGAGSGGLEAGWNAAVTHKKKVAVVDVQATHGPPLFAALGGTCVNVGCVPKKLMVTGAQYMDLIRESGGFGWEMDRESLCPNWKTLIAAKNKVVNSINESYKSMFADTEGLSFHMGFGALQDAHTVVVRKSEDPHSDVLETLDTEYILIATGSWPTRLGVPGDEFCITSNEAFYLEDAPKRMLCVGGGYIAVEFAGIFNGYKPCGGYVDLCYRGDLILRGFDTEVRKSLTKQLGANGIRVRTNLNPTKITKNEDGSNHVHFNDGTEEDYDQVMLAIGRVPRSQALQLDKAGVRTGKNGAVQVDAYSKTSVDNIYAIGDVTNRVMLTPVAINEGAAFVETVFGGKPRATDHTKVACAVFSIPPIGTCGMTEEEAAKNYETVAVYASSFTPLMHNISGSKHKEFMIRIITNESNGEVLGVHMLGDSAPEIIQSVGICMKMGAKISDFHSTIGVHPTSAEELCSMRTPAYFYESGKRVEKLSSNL
Description: S5 Fig. inhibition of Leismania infantum trypanothione reductase (LiTR) by Compound 1. Each experimental point is the average of three replicates.
The following method was used to determine the inhibition of the LiTR activity:
L. infantum TR was cloned and purified as previously described.[1] Bovine serum albumin (BSA), NADPH, auranofin, hGR, oxidized glutathione (GSSG) and DTNB were purchased from Sigma-Aldrich (St. Louis, MO); oxidized trypanothione (TS2) was purchased from Bachem (Bubendorf, Switzerland); the NADPH-Glo kit was purchased from Promega (Madison, WI, U.S.A.). Compounds, dissolved in DMSO, were transferred to 384-well white plates (Greiner Bio One, Frickenhausen, Germany) using the acoustic droplet ejection technology (ATS-100, EDC Biosystems, U.S.A.) to reach the desired final concentration. […] After 60 min of incubation at room temperature, an equal volume of NADPH-Glo reagent was added and the luminescent signal was acquired by an EnVision plate reader […]
as §3, with “Switzerland). Results were analyzed using Prism software (GraphPad, San Diego, CA, U.S.A.) and Vortex (Dotmatics, Bioshops Stortford, UK).” for “Switzerland).”

TbTR [4] = biological target: T4, TbTR (Trypanosoma brucei brucei, UniProt P39051); test: TbTR DTNB absorbance assay; assay type: biochemical
T4 construct: the gene coding for the enzyme (aa 1–492) was codon optimized for the expression in E.coli; made in house; host or cells: E. coli BL21(DE3)
T4 sequence (P39051 whole entry, the tested form may be a part): as the sequence (P39051 whole entry, the tested form may be a part) above
Experimental: as §1, with “The DTNB assay was performed in a final volume of 50 μl by addition of 2 nM TR, 100 μM NADPH, 4 μM TS2 and 200 μM DTNB in 40 mM HEPES (pH 7.4), 1 mM EDTA, 0.01% BSA and 0.05% Tween-20.” left out, “The human glutathione reductase (hGR) activity assay was carried out as described by Turcano et al.[23].” left out, “Dose-response curves were fitted by four-parameter logistic regression.” left out
as §2, §3

physchem = assay type: physicochemical; conditions: pH 7.4, aqueous buffer
Experimental: The solubility testing was carried out as previously reported.

T. brucei parasites = test: T. brucei growth inhibition assay (CellTiter-Glo); assay type: cell-based; conditions: Trypanosoma brucei, 24 h treatment, read-out: IC50, anti-proliferative activity on T. brucei culture
Experimental: The anti-proliferative effect of testing compounds on T. brucei in vitro cultures was carried out by incubating compounds with 1.5 × 10^3 parasite per well followed by 24 incubation at 37°C and 5% CO2. The parasite viability was measured by CellTiter-Glo according to the manufacturer's instructions.

[5] = system: endogenous TbTR activity in T. brucei lysate; test: T. brucei lysate thiol formation assay; assay type: biochemical, Trypanosoma brucei; conditions: 200 μM NADPH, 50 μM TS2, 100 μM DTNB, 30 min, absorbance 412 nm; read-out: IC50, inhibition of endogenous TbTR activity in T. brucei lysate
Experimental: T. brucei parasites were grown on IMDM medium (Iscove’s Modified Dulbecco’s Medium) supplied with 3 gr/L sodium bicarbonate, 136 mg/L hypoxanthine, 39 mg/L thymidine, 28.2 mg/L bathocuprione sulfonic acid, 0.5 mM cysteine, 0.001% β-mercaptoethanol and 10% heat-inactivated Calf serum. 1.5 x 10^6 compound treated parasite per well were lysed using 1 mM EDTA, 40 mM Hepes pH 7.5, 50 mM Tris-HCl pH 7.5, 2% Triton-X100 and protease inhibitors cocktail (Sigma). 200 μM NADPH, 50 μM TS2, 100 μM DTNB were added in each well to trigger the TbTR activity. After 30 min incubation the absorbance signal (412 nm) was detected using the Safire2 plate reader (Tecan, Switzerland).

TbTR [6] = biological target: T4, TbTR; test: SPR binding assay on immobilized TbTR
Experimental: Surface Plasmon resonance (SPR) interaction analysis were performed using a Biacore T200 (GE Healthcare, Uppsala, Sweden). TbTR was immobilized on a CM4 chip by amine coupling according to manufacturer’s instructions (Amine Coupling Kit, GE Healthcare, Uppsala, Sweden). Briefly, the surface of the sensor chip was activated for 7 minutes using a mixture of 0.1 M N-hydroxy succinimide (NHS) and 0.4 M N-ethyl-N’-[3-dimethyl-aminopropyl] carbodiimide (EDC) then 30 μg/ml of […] in 10 mM sodium acetate (pH 4.5) was injected for 360 s at 10 μl/min, finally residual activated groups on the surface were blocked by a 7 min injection of 1 M ethanolamine (pH 8.5). A reference channel for background subtraction was prepared by activation with EDC/NHS mixture (0.1 M/0.4 M as per ligand immobilization), followed by blocking with 1 M ethanolamine. The binding of the selected hit to the immobilized ligand was evaluated by a multi-cycle kinetic procedure in PBS-P (GE Healthcare Lifescience) supplemented with 2% DMSO (Sigma Aldrich). The analyte was injected for 60 s at 50 μl/min until equilibrium and dissociation monitored for 600 s. A standard curve of DMSO was included for solvent correction.
Biomolecular binding events were reported as changes of resonance units (RUs) over time. The data were analyzed by the Biacore T200 evaluation software. The sensorgrams were obtained, by subtracting the signals of the reference channel to those of the TbTR-immobilized one, and corrected for DMSO interference using the DMSO standard curve. The binding affinity was evaluated from kinetic parameters (koff/kon) calculated according to a heterogeneous ligand binding model.

TbTR [7] = biological target: T4, TbTR; test: TS2 competition assay (TbTR luminescent assay); assay type: biochemical; conditions: 5 or 25 μM compound
Experimental: Competition experiments were performed at two different compound concentrations (5 μM and 25 μM) by TbTR luminescent assay. The apparent Km values for TS2 in presence of 20 μM NADPH were calculated using 1 nM TR after 10 min incubation. […] The luminescent signal was measured using the EnVision plate reader (PerkinElmer, USA). IC50, Vmax, and Km values were calculated using Prism software (GraphPad, San Diego, CA).

[8] = TbTR assay IC50, luminescence assay, n=4, dose-response from 85 μM

Row | IC50 ([1]; luminescence assay, n=4, dose-response from 85 μM, read-out: TbTR assay IC50) [µM] | Compound | IC50 [2] [µM] | activity against human glutathione reductase (hGR) [2] | IC50 [3] [µM] | IC50 ([1]; TbTR IC50, luminescence assay) [µM] | IC50 [1, 8] [µM] | IC50 (TbTR [4]) [µM] | solubility (physchem) [µM] | IC50 (T. brucei parasites) [µM] | IC50 [5] [µM] | Kd (TbTR [6]) [µM] | koff (TbTR [6]) [s⁻¹] | binding to TbTR (reversibility) (TbTR [6]; SPR, 0.3125 to 20 μM) | change in calculated Vmax (TbTR [7]) | mode of inhibition versus TS2 (TbTR [7])
1 | > 85 | O=C(CCCN1CCC2(CC1)C(=O)NCN2c1ccccc1)c1ccc(F)cc1 [Compound 5, Spiperone, reference compound] | – | – | – | – | – | – | – | – | – | – | – | – | – | –
2 | – | CN(CCCN1CN(c2ccccc2)C2(CCN(CC[C@@H]3CC[C@H]4C[C@@H]3C4(C)C)CC2)C1=O)CC1(O)CCN(C(=N)N)CC1 [Compound 1, 4-(((3-(8-(2-((1S,2S,5S)-6,6-dimethylbicyclo[3.1.1]heptan-2-yl)ethyl)-4-oxo-1-phenyl-1,3,8-triazaspiro[4.5]decan-3-yl)propyl)(methyl)amino)methyl)-4-hydroxypiperidine-1-carboximidamide] | > 50 | no activity was detected | 3.8 ± 0.6 | 3.5 ± 2.2 | 3.5 ± 2.19 | 0.966 ± 0.068 | 185 (≈ 113 µg/mL) | 2.2 ± 2.4 | 5.7 ± 0.6 | 10.3 ± 2.9 | 0.035 ± 0.014 | reversible binding | No changes | competitive with TS2
3 | – | O=C(CCN1CN(c2ccccc2)C2(CCNCC2)C1=O)NC(c1ccccc1)c1ccccc1 [Compound 18] | – | – | – | – | > 85 | – | – | – | – | – | – | – | – | –
